In patent publication US9248162B2, “Factor H for treatment of rheumatoid arthritis” (Baxter International Inc., priority 2013, dated 2016):
Values joined by “and” are separate entries in the source; they are usually repeats but may differ in a detail not shown here. Identical values can stand only once.

Key:
[1] = tested on: collagen antibody-induced arthritis; assay: Mouse CAIA: ankle histology scores (H & E); assay type: in vivo, Balb C mice; parameters: key to Score From H & E: Inflammation: 0: normal; 1: minimal infiltration of inflammatory cells in periarticular tissue; 2: mild infiltration; 3: moderate infiltration with moderate edema; 4: marked infiltration with marked edema; 5: severe infiltration with severe edema; key to Exostosis, Summary (significance) / Composite, Summary (significance) / Pannus, Summary (significance) / Cartilage, Summary (significance) / Inflammation, Summary (significance): ns: = not significant; *: = P < 0.05; **: = P < 0.01; ***: = P < 0.001; Composite Biohistopathology Score, group value / Composite Biohistopathology Score: scale not given here
Description: (§1) Balb C mice (n=10 per cohort) were used to determine the efficacy of Factor H (FH) during […]. The mice were treated with ArthritoMAb (anti-collagen) antibody cocktail (2 mg, i.v.) on day 1, followed 7 days later with an injection of LPS (50 μg, i.p.). On day 8, hind paw volumes were measured for each animal and distributed to various treatment groups.
(§2) Dosing with the different agents was started on day 8 as described in Table 3.
(§3) Hind paw volumes were measured on day 8, 11, 12, 13, 15, 19 and 22 (endpoint). The age at start date was 7 to 9 weeks. Body weights were measured bi-weekly to the endpoint (Table 4). At the endpoint, tissue samples were processed for histology and submitted to a pathologist for independent analysis. Sampling 1 was performed at the endpoint. The hind limbs were preserved in 10% formalin. Sampling 2 was performed at the endpoint for group 4 animals. Blood was collected by terminal cardiac puncture. The blood was processed for anti-coagulant. The kidneys were additionally preserved in formalin and followed with 70% EtOH. Samples were scored for inflammation, pannus (granulation tissue), cartilage damage, bone resorption and exostosis (Table 5).

[2] = tested on: collagen antibody-induced arthritis; assay: Mouse CAIA: hind paw / footpad volume (swelling, disease burden); assay type: in vivo, Balb C mice; parameters: Mean Disease Burden / Total Disease Burden (AUC) / Hind Limb Volume, Mean Diff. / Total Disease, Mean Diff.: unit not given here
Description: as §1
(§4) Factor H was formulated in 20 mM Citrate, 150 mM NaCl, pH=6. […] Ethanercept was formulated as Enbrel™ in saline. Vehicle was formulated in 20 mM Citrate, 150 mM NaCl, pH=6. […] The dosing volume for Factor H and BX12 was 25 mL/kg (0.500 mL/20 g mouse) and adjusted accordingly for body weight.
as §2
as §3, with “The” for “Hind paw volumes were measured on day 8, 11, 12, 13, 15, 19 and 22 (endpoint). The”

[3] = tested on: collagen antibody-induced arthritis; assay: Mouse CAIA: clinical score; assay type: in vivo, Balb C mice
Description: The mice were treated with ArthritoMAb (anti-collagen) antibody cocktail (2 mg, i.v.) on day 1, followed 7 days later with an injection of LPS (50 μg, i.p.). On day 8, hind paw volumes were measured for each animal and distributed to various treatment groups.
as §4, §2

[4] = Mouse CAIA: body weight and tolerability; assay type: in vivo, Balb C mice; conditions: mouse, in vivo
Description: as §1, §2, §3

[5] = tested on: collagen antibody-induced arthritis; assay: Mouse CAIA: ankle histology scores (H & E); assay type: in vivo, Balb C mice; parameters: key: 0: normal; 1: minimal infiltration of pannus in cartilage and subchondral bone; 2: mild infiltration; 3: moderate infiltration; 4: marked infiltration; 5: severe infiltration; conditions: individual animal, score 0-5, endpoint day 22, listed as Group 2
Description: as §1, §2, §3

[6] = tested on: collagen antibody-induced arthritis; assay: Mouse CAIA: ankle histology scores (H & E); assay type: in vivo, Balb C mice; parameters: key: 0: normal; 1: minimal infiltration of inflammatory cells in periarticular tissue; 2: mild infiltration; 3: moderate infiltration with moderate edema; 4: marked infiltration with marked edema; 5: severe infiltration with severe edema; conditions: individual animal
Description: as §1, §2, §3

[7] = tested on: kidney allografts in pre-sensitized recipients; assay: Kidney allograft survival in pre-sensitized recipients, RAPA / FK506 / CFH (Example 2); assay type: in vivo, C57BL/6 (B6) mice
Text: Male C3H (H-2k) and C57BL/6 (B6, H-2b) mice (25-30 g) were used to determine the efficacy of Rapamycin (RAPA) in combination with Factor H (FH) during transplant rejection. C3H mice served as skin graft and kidney donors for pre-sensitization and kidney transplantation. Male C57BL/c (B6) mice were used as recipients. The B6 recipients were pre-sensitized by transplantation of the donor skin grafts, and were subsequently transplanted with kidney allografts between 15 and 20 days after the skin transplantation. […]
Mice were monitored daily for signs of rejection and were euthanized at the end point of the experiment, which was defined as when transplants developed functional deterioration due to severe rejection or on POD60 and POD100. Renal graft function was monitored by plasma creatinine (Cr) blood urea nitrogen (BUN) and hematocrit (Hct) levels by an I-Stat potable analyzer (Abaxis). Circulating donor specific antibodies (DSAs) were determined prior to kidney transplantation and at the endpoint of study by flow cytometry.

[8] = histopathology score, graded 1-5, hind limbs at endpoint, group value
[9] = Vehicle vs agent, Dunnett's Multiple Comparison Test
[10] = Vehicle vs agent, Dunn's Multiple Comparison Test
[11] = ankle, group mean ± spread, 10 animals, score 0-5

SMILES: C[C@@H]1C[C@H]2[C@@H]3CCC4=CC(=O)C=C[C@]4(C)[C@@]3(F)[C@@H](O)C[C@]2(C)[C@@]1(O)C(=O)CO [Dex.]
- Composite Score ([1]; histopathology composite, hind limbs at endpoint, group value): 0.2 ± 0.1
- Bone Resorption [1, 8]: 0 ± 0^ns
- Cartilage Damage [1, 8]: 0 ± 0^ns
- Exostosis [1, 8]: 0 ± 0
- Inflammation [1, 8]: 0.1 ± 0.1
- Pannus [1, 8]: 0.1 ± 0.1^ns

SMILES: C[C@@H]1C[C@H]2[C@@H]3CCC4=CC(=O)C=C[C@]4(C)[C@@]3(F)[C@@H](O)C[C@]2(C)[C@@]1(O)C(=O)CO [Dexamethasone]
- Hind Limb Volume, Summary (significance) [2, 9]: *** (= P < 0.001)
- Total Disease, Summary (significance) [2, 9]: *** (= P < 0.001)
- Hind paw volume ([2]; day 8 of study, group mean, n 10): 0.35 mL
- Hind paw volume ([2]; day 8 of study, individual animal): 0.42 mL and 0.39 mL (2×) and 0.37 mL and 0.35 mL and 0.34 mL and 0.33 mL and 0.31 mL (2×) and 0.3 mL
- Hind paw volume ([2]; day 11 of study, group mean, n 10): 0.32 mL
- Hind paw volume ([2]; day 11 of study, individual animal): 0.38 mL and 0.34 mL and 0.32 mL (3×) and 0.3 mL (3×) and 0.35 mL and 0.31 mL
- Hind paw volume ([2]; day 12 of study, group mean, n 10): 0.34 mL
- Hind paw volume ([2]; day 12 of study, individual animal): 0.34 mL (4×) and 0.28 mL and 0.35 mL and 0.32 mL and 0.31 mL and 0.39 mL and 0.37 mL
- Hind paw volume ([2]; day 13 of study, group mean, n 10): 0.33 mL
- Hind paw volume ([2]; day 13 of study, individual animal): 0.31 mL (2×) and 0.3 mL (2×) and 0.36 mL and 0.35 mL (2×) and 0.33 mL and 0.38 mL and 0.29 mL
- Hind paw volume ([2]; day 16 of study, group mean, n 10): 0.31 mL
- Hind paw volume ([2]; day 16 of study, individual animal): 0.37 mL and 0.33 mL and 0.29 mL (3×) and 0.38 mL and 0.26 mL and 0.3 mL (2×) and 0.27 mL
- Hind paw volume ([2]; day 19 of study, group mean, n 10): 0.34 mL
- Hind paw volume ([2]; day 19 of study, individual animal): 0.35 mL (4×) and 0.28 mL and 0.3 mL (2×) and 0.38 mL and 0.37 mL and 0.32 mL
- Hind paw volume ([2]; day 22 of study, group mean, n 10): 0.33 mL
- Hind paw volume ([2]; day 22 of study, individual animal): 0.39 mL and 0.42 mL and 0.3 mL and 0.32 mL and 0.29 mL (2×) and 0.35 mL (2×) and 0.31 mL and 0.26 mL
- % Disease Suppression ([2]; days 8-22, individual animal): 95.1%
- Total Disease Burden (AUC) ([2]; days 8-22, individual animal): −0.56 and −0.05
- Clinical Score, Summary (significance) [3, 10]: *** (= P < 0.001)
- Clinical Score, Day of Study 8, Mean ([3]; group mean, n=10, day 8 (start of dosing)): 4.00
- Clinical Score, Day of Study 11, Mean ([3]; group mean, n=10, day 11): 0.10
- Clinical Score, Day of Study 12, Mean ([3]; group mean, n=10, day 12): 5.70
- Clinical Score, Day of Study 13, Mean ([3]; group mean, n=10, day 13): 6.00
- Clinical Score, Day of Study 16, Mean ([3]; group mean, n=10, day 16 (Jul. 1, 2011)): 0.00
- Clinical Score, Day of Study 19, Mean ([3]; group mean, n=10, day 19): 0.00
- Clinical Score, Day of Study 22, Mean ([3]; group mean, n=10, day 22 (endpoint)): 0.00
- Clinical Score, Day of Study 8 ([3]; individual animal, score 0-60, day 8 (start of dosing)): 5 (2×) and 10 (3×) and 0 (5×)
- Clinical Score, Day of Study 11 ([3]; individual animal, score 0-60, day 11): 0 (9×) and 1
- Clinical Score, Day of Study 12 ([3]; individual animal, score 0-60, day 12): 0 (3×) and 10 (4×) and 5 (2×) and 7
- Clinical Score, Day of Study 13 ([3]; individual animal, score 0-60, day 13): 0 (4×) and 10 (6×)
- Clinical Score, Day of Study 16 ([3]; individual animal, score 0-60, day 16 (Jul. 1, 2011)): 0
- Clinical Score, Day of Study 19 ([3]; individual animal, score 0-60, day 19): 0
- Clinical Score, Day of Study 22 ([3]; individual animal, score 0-60, day 22 (endpoint)): 0
- Cartilage, Summary (significance) [1, 10]: ns
- Composite, Summary (significance) [1, 10]: * (= P < 0.05)
- Exostosis, Summary (significance) [1, 10]: ** (= P < 0.01)
- Inflammation, Summary (significance) [1, 10]: ** (= P < 0.01)
- Pannus, Summary (significance) [1, 10]: ns
- Composite Biohistopathology Score, group value ([1]; ankle, group mean ± spread, 10 animals): 0.2 ± 0.1
- Score From H & E: Bone Resorption, group value [1, 11]: 0.0 ± 0.0
- Score From H & E: Cartilage Damage, group value [1, 11]: 0.0 ± 0.0
- Score From H & E: Inflammation, group value [1, 11]: 0.1 ± 0.1
- Score From H & E: Pannus, group value [1, 11]: 0.1 ± 0.1
- Score From H & E: Periosteal/Exostotic Changes, group value [1, 11]: 0.0 ± 0.0
- Composite Biohistopathology Score ([1]; ankle, individual animal, endpoint day 22, listed as Group 2): 1 (2×) and 0 (8×)
- Score From H & E: Inflammation ([1]; ankle, individual animal, score 0-5, endpoint day 22, listed as Group 2): 0 (9×) and 1
- Mean Body Weigh at Nadir [4]: −7.7%
- Score From H & E: Pannus [5]: 1
- Score From H & E: Bone Resorption ([6]; score 0-5, endpoint day 22): 0
- Score From H & E: Cartilage Damage ([6]; score 0-5, endpoint day 22): 0
- Score From H & E: Periosteal/Exostotic Changes ([6]; score 0-5, endpoint day 22): 0
- Score From H & E: Pannus ([6]; score 0-5, endpoint day 22, listed as Group 2): 0

SMILES: CO[C@H]1C[C@@H]2CC[C@@H](C)[C@@](O)(O2)C(=O)C(=O)N2CCCC[C@H]2C(=O)O[C@H]([C@H](C)C[C@@H]2CC[C@@H](O)[C@H](OC)C2)CC(=O)[C@H](C)/C=C(\C)[C@@H](O)[C@@H](OC)C(=O)[C@H](C)C[C@H](C)/C=C/C=C/C=C/1C [RAPA, Rapamycin]
- Survival ([7]; individual graft survival, one value per graft): 8 days (2×) and 37 days and 10 days and 11 days and 12 days and 22 days and 14 days and 16 days and 20 days
- MST ([7]; mean survival time of cohort, untreated controls 8 days): 14 days
